Where two headings read alike, the source gives them in different places.

This assay concerns squamous metoplasia and keratinization in organ cultures of trachea derived from vitamin A-deficient hamsters. The assay is described as follows: inhibition of squamous metaplasia and keratinization (reversal of keratinization) in tracheal organ cultures. Conditions: Mesocricetus auratus, read-out: Reversal of Keratinization ED50. The assay is classed as cell-based, hamster.
[1] abbreviates: median effective dose: dose required for reversal of keratinization of 50% of the explants, by probit analysis, hamster trachea organ culture.

As for `CC1=C(/C=C/C(C)=C/C=C/C(C)=C/C(=O)OCc2ccccc2N2C(=O)[C@@H](N=[N+]=[N-])[C@H]2/C=C/c2ccccc2)C(C)(C)CCC1` (relative stereo) [Compound IV], the EC50 under setting [1] was found to be 0.407 nM.
The same measure, in the same setting: the result for `CC1=C(/C=C/C(C)=C/C=C/C(C)=C/C(=O)OCc2cccc3c2N2C(=O)[C@@H](NC(=O)Cc4ccccc4)[C@H]2CO3)C(C)(C)CCC1` (relative stereo) [Compound VI] reads 0.39 nM; that for `CC1=C(/C=C/C(C)=C/C=C/C(C)=C/C(=O)OCc2ccccc2N2C(=O)[C@@H](NC(=O)Cc3ccccc3)[C@H]2/C=C/c2ccccc2)C(C)(C)CCC1` (relative stereo) [Compound V], 0.198 nM.
On to `CC1=C(/C=C/C(C)=C/C=C/C(C)=C/C(=O)OC(C(=O)c2ccccn2)c2ccccn2)C(C)(C)CCC1` (centres unmarked) [Compound VII], for which the EC50 under setting [1] came out at 0.31 nM.
For `CC1=C(/C=C/C(C)=C/C=C/C(C)=C/C(=O)O)C(C)(C)CCC1` [β-All-trans-retinoic acid, reference compound], the EC50 turned out to be 0.115 nM.

(Values after patent publication US4385175A, “Esters of retinoic acid and azetidinone derivatives” (Bristol-Myers Company, priority 1982, dated 1983).)
